Key:
Experiment in all cases: relative viability (nuclei count vs DMSO), 5 days (fraction); higher = more cells survive
201T = test system: 201T
In short: (§1)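 Lung cancer cell lines in 1536-well plates got either a single drug or a fixed anchor-drug dose together with five library-drug doses (not always all listed) in √10 steps, by pin tool, on the day after seeding. Nuclei were counted after 5 days, and relative viability is the treated-to-vehicle ratio of nuclei counts. Values are medians of duplicate plates.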

ABC-1 = test system: ABC-1
In short: as §1

BEN = test system: BEN
In short: as §1

HCC-366 = test system: HCC-366
In short: as §1

HCC-44 = test system: HCC-44
In short: as §1

HCC-78 = test system: HCC-78
In short: as §1

LK-2 = test system: LK-2
In short: as §1

LOU-NH91 = test system: LOU-NH91
In short: as §1

NCI-H1355 = test system: NCI-H1355
In short: as §1

NCI-H1666 = test system: NCI-H1666
In short: as §1

NCI-H1734 = test system: NCI-H1734
In short: as §1

Which relative viability (201T; first compound 0.08 µM) does the source give for O=c1[nH]c2ccccc2n1C1CCN(CCCC(c2ccc(F)cc2)c2ccc(F)cc2)CC1 [Pimozide] + C[C@]1(O)C[C@@H](c2nc(-c3ccc4ccc(-c5ccccc5)nc4c3)c3c(N)nccn32)C1 [Linsitinib] (partner 1 µM) here?
The relative viability was 1.

And the relative viability (201T; first compound 0.253 µM)?
Its relative viability is 1.01.

What about the relative viability (201T; first compound 0.8 µM) of the same molecule?
The relative viability was 1.

What about the relative viability (201T; first compound 2.53 µM) of the same molecule?
The relative viability was 1.05.

What about the relative viability (201T; first compound 8 µM) of the same molecule?
Its relative viability is 0.884.

What about the relative viability (ABC-1; first compound 0.08 µM) of the same molecule?
The relative viability was 0.825.

And the relative viability (ABC-1; first compound 0.253 µM)?
Its relative viability is 0.747.

What about the relative viability (ABC-1; first compound 0.8 µM) of the same molecule?
Its relative viability is 0.788.

And the relative viability (ABC-1; first compound 2.53 µM)?
Its relative viability is 0.629.

And the relative viability (ABC-1; first compound 8 µM)?
Its relative viability is 0.491.

And the relative viability (BEN; first compound 0.08 µM)?
The relative viability was 1.07.

And the relative viability (BEN; first compound 0.253 µM)?
Its relative viability is 1.02.

And the relative viability (BEN; first compound 0.8 µM)?
The relative viability was 0.856.

And the relative viability (BEN; first compound 2.53 µM)?
The relative viability was 0.88.

And the relative viability (BEN; first compound 8 µM)?
Its relative viability is 0.892.

What about the relative viability (HCC-366; first compound 0.08 µM) of the same molecule?
The relative viability was 0.747.

What about the relative viability (HCC-366; first compound 0.253 µM) of the same molecule?
The relative viability was 0.67.

What about the relative viability (HCC-366; first compound 0.8 µM) of the same molecule?
The relative viability was 0.7.

And the relative viability (HCC-366; first compound 2.53 µM)?
The relative viability was 0.754.

And the relative viability (HCC-366; first compound 8 µM)?
The relative viability was 0.677.

What about the relative viability (HCC-44; first compound 0.08 µM) of the same molecule?
Its relative viability is 0.635.

And the relative viability (HCC-44; first compound 0.253 µM)?
Its relative viability is 0.703.

What about the relative viability (HCC-44; first compound 0.8 µM) of the same molecule?
Its relative viability is 0.64.

And the relative viability (HCC-44; first compound 2.53 µM)?
Its relative viability is 0.653.

And the relative viability (HCC-44; first compound 8 µM)?
Its relative viability is 0.685.

What about the relative viability (HCC-78; first compound 0.08 µM) of the same molecule?
Its relative viability is 0.531.

What about the relative viability (HCC-78; first compound 0.253 µM) of the same molecule?
Its relative viability is 0.469.

And the relative viability (HCC-78; first compound 0.8 µM)?
The relative viability was 0.549.

And the relative viability (HCC-78; first compound 2.53 µM)?
Its relative viability is 0.46.

What about the relative viability (HCC-78; first compound 8 µM) of the same molecule?
Its relative viability is 0.536.

And the relative viability (LK-2; first compound 0.08 µM)?
The relative viability was 0.52.

What about the relative viability (LK-2; first compound 0.253 µM) of the same molecule?
Its relative viability is 0.543.

And the relative viability (LK-2; first compound 0.8 µM)?
Its relative viability is 0.493.

And the relative viability (LK-2; first compound 2.53 µM)?
Its relative viability is 0.37.

And the relative viability (LK-2; first compound 8 µM)?
The relative viability was 0.371.

What about the relative viability (LOU-NH91; first compound 0.08 µM) of the same molecule?
Its relative viability is 0.488.

What about the relative viability (LOU-NH91; first compound 0.253 µM) of the same molecule?
Its relative viability is 0.97.

And the relative viability (LOU-NH91; first compound 0.8 µM)?
The relative viability was 0.929.

And the relative viability (LOU-NH91; first compound 2.53 µM)?
Its relative viability is 1.1.

What about the relative viability (LOU-NH91; first compound 8 µM) of the same molecule?
Its relative viability is 0.959.

And the relative viability (NCI-H1355; first compound 0.08 µM)?
The relative viability was 0.701.

And the relative viability (NCI-H1355; first compound 0.253 µM)?
Its relative viability is 0.804.

What about the relative viability (NCI-H1355; first compound 0.8 µM) of the same molecule?
Its relative viability is 0.758.

And the relative viability (NCI-H1355; first compound 2.53 µM)?
The relative viability was 0.803.

What about the relative viability (NCI-H1355; first compound 8 µM) of the same molecule?
The relative viability was 0.762.

What about the relative viability (NCI-H1666; first compound 0.08 µM) of the same molecule?
The relative viability was 0.786.

And the relative viability (NCI-H1666; first compound 0.253 µM)?
Its relative viability is 0.723.

What about the relative viability (NCI-H1666; first compound 0.8 µM) of the same molecule?
Its relative viability is 0.711.

And the relative viability (NCI-H1666; first compound 2.53 µM)?
Its relative viability is 0.73.

And the relative viability (NCI-H1666; first compound 8 µM)?
Its relative viability is 0.635.

What about the relative viability (NCI-H1734; first compound 0.08 µM) of the same molecule?
The relative viability was 0.88.

What about the relative viability (NCI-H1734; first compound 0.253 µM) of the same molecule?
The relative viability was 0.829.

What about the relative viability (NCI-H1734; first compound 0.8 µM) of the same molecule?
The relative viability was 0.878.

What about the relative viability (NCI-H1734; first compound 2.53 µM) of the same molecule?
The relative viability was 0.944.

What about the relative viability (NCI-H1734; first compound 8 µM) of the same molecule?
The relative viability was 0.972.

From the supplement of paper PMC10307832
